Data: patent US12630550B2, “Pharmacophore for trail induction” (THE SCRIPPS RESEARCH INSTITUTE, priority 2014, dated 2026)

System: TRAIL mRNA expression
Conditions: RAW 264.7; doses as high as 10 μM or prolonged exposure
Method: RAW 264.7 cells (ATCC TIB-71) were maintained in growth medium of Dulbecco's Modified Eagle's Medium (DMEM with 4.5 g/L glucose and pyruvate, Gibco BRL, Invitrogen Corp., USA) supplemented with L-glutamine, penicillin/streptomycin, non-essential amino acids (100× stocks, Invitrogen Corp.), 10 mM HEPES, pH 7.4 (1 M stock, Invitrogen), and 10% Fetal Bovine Serum (FBS, Hyclone); (V. V. Kravchenko, R. J. Ulevitch, G. F. Kaufmann, Methods Mol. Biol. 2011, 692, 133-145).
Cells were plated in 6-well plates (Corning Costar 3506) diluted 1:5 in 3 mL growth medium, media was changed after cells had adhered. After 12 h incubation, cells were treated with described concentration of compound in DMSO, and incubated in the presence of that compound or vehicle for the described amount of time. At this time, media was removed and cells were treated with TRIzol reagent (Life Technologies), and RNA extracted via included protocol. RNA concentration determined using a Hitachi U-2000 UV-Vis Spectrophotometer and samples diluted to 12 μg/5 μL in H2O. […]

## Cc1ccccc1CN1C2=NCCN2C(=O)C2=C1CCN(Cc1ccccc1)C2 [Compound 1, 7-Benzyl-10-(2-methylbenzyl)-2,6,7,8,9,10-hexahydroimidazo[1,2-a]pyrido[4,3-d]pyrimidin-5(3H)-one, reference compound]
  change in TRAIL mRNA expression over controls: No change in TRAIL mRNA expression over controls
